Marks after values point to notes of the source that are not given here.

The record followed here is US12390441B2, “Immunomodulating o-het/aryl azalides” (Zoetis Services LLC, priority 2020, dated 2025).

The test has as its system BRD pathogens, M. haemolytica and P. multocida. Briefly: In-vitro MIC model, BRD pathogen screening panel. The test is classed as cell-based, Mannheimia haemolytica; Pasteurella multocida. As to conditions: at least one BRD strain.
Consider `CC[C@H]1OC(=O)[C@H](C)[C@@H](O[C@H]2C[C@@](C)(OC)[C@@H](O)[C@H](C)O2)[C@H](C)[C@@H](O[C@@H]2O[C@H](C)C[C@H](NC)[C@H]2Oc2ccc(OC)nc2OC)[C@](C)(O)C[C@@H](C)CN(C)[C@H](C)[C@@H](O)[C@]1(C)O` [Example A-42], for which the “MIC flag at the example number (Table A)” value is recorded as “A-42* (MIC ≤ 64 μg/mL for at least one BRD strain)”. Regarding `CC[C@H]1OC(=O)[C@H](C)[C@@H](O[C@H]2C[C@@](C)(OC)[C@@H](O)[C@H](C)O2)[C@H](C)[C@@H](O[C@@H]2O[C@H](C)C[C@H](N(C)C)[C@H]2Oc2ccc(OC)nc2OC)[C@](C)(O)C[C@@H](C)CN(C)[C@H](C)[C@@H](O)[C@]1(C)O` [Example A-43], the “MIC flag at the example number (Table A)” value is “A-43* (MIC ≤ 64 μg/mL for at least one BRD strain)”.

Consider `CC[C@H]1OC(=O)[C@H](C)[C@@H](O[C@H]2C[C@@](C)(OC)[C@@H](O)[C@H](C)O2)[C@H](C)[C@@H](O[C@@H]2O[C@H](C)C[C@H](N(C)C)[C@H]2Oc2ccccc2OC)[C@](C)(O)C[C@@H](C)CN(C)[C@H](C)[C@@H](O)[C@]1(C)O` [Example A-46], for which the “MIC flag at the example number (Table A)” value is listed as “A-46* (MIC ≤ 64 μg/mL for at least one BRD strain)”. Consider `CC[C@H]1OC(=O)[C@H](C)[C@@H](O[C@H]2C[C@@](C)(OC)[C@@H](O)[C@H](C)O2)[C@H](C)[C@@H](O[C@@H]2O[C@H](C)C[C@H](N(C)C)[C@H]2Oc2cc(OC)cc(OC)c2)[C@](C)(O)C[C@@H](C)CN(C)[C@H](C)[C@@H](O)[C@]1(C)O` [Example A-48], for which the “MIC flag at the example number (Table A)” value is reported as “A-48* (MIC ≤ 64 μg/mL for at least one BRD strain)”. For the compound `CC[C@H]1OC(=O)[C@H](C)[C@@H](O)[C@H](C)[C@@H](O[C@@H]2O[C@H](C)C[C@H](N(C)C(=O)N(C)c3ccccc3)[C@H]2Oc2ccc3ncsc3c2)[C@](C)(O)C[C@@H](C)CN(C)[C@H](C)[C@@H](O)[C@]1(C)O` [Example C-11], the “MIC flag at the example number (Table C)” value is “C-11* (MIC ≤ 64 μg/mL for at least one BRD strain)”. Turning to `CCCNC[C@]1(O)[C@H](C)O[C@@H](O[C@H]2[C@H](C)[C@@H](O[C@@H]3O[C@H](C)C[C@H](NC)[C@H]3Oc3ccccc3OC(F)(F)F)[C@](C)(O)C[C@@H](C)CN[C@H](C)[C@@H](O)[C@](C)(O)[C@@H](CC)OC(=O)[C@@H]2C)C[C@@]1(C)OC` [Example E-5], the “MIC flag at the example number (Table E)” value is reported as “E-5* (MIC ≤ 64 μg/mL for at least one BRD strain)”. For the compound `CCCNC[C@]1(O)[C@H](C)O[C@@H](O[C@H]2[C@H](C)[C@@H](O[C@@H]3O[C@H](C)C[C@H](NC)[C@H]3Oc3ccccc3Cl)[C@](C)(O)C[C@@H](C)CN[C@H](C)[C@@H](O)[C@](C)(O)[C@@H](CC)OC(=O)[C@@H]2C)C[C@@]1(C)OC` [Example E-14], the “MIC flag at the example number (Table E)” value was “E-14* (MIC ≤ 64 μg/mL for at least one BRD strain)”.

`CCCNC[C@]1(O)[C@H](C)O[C@@H](O[C@H]2[C@H](C)[C@@H](O[C@@H]3O[C@H](C)C[C@H](NC)[C@H]3Oc3cc(F)cc(F)c3)[C@](C)(O)C[C@@H](C)CN[C@H](C)[C@@H](O)[C@](C)(O)[C@@H](CC)OC(=O)[C@@H]2C)C[C@@]1(C)OC` [Example E-16]: the “MIC flag at the example number (Table E)” value is recorded as “E-16* (MIC ≤ 64 μg/mL for at least one BRD strain)”. Take `CCCNC[C@]1(O)[C@H](C)O[C@@H](O[C@H]2[C@H](C)[C@@H](O[C@@H]3O[C@H](C)C[C@H](NC)[C@H]3Oc3cc(F)ccc3OC)[C@](C)(O)C[C@@H](C)CN[C@H](C)[C@@H](O)[C@](C)(O)[C@@H](CC)OC(=O)[C@@H]2C)C[C@@]1(C)OC` [Example E-17]: the “MIC flag at the example number (Table E)” value was “E-17* (MIC ≤ 64 μg/mL for at least one BRD strain)”.

For the compound `CCCNC[C@]1(O)[C@H](C)O[C@@H](O[C@H]2[C@H](C)[C@@H](O[C@@H]3O[C@H](C)C[C@H](NC)[C@H]3Oc3cc(OC)ccc3F)[C@](C)(O)C[C@@H](C)CN[C@H](C)[C@@H](O)[C@](C)(O)[C@@H](CC)OC(=O)[C@@H]2C)C[C@@]1(C)OC` [Example E-18], the “MIC flag at the example number (Table E)” value was “E-18* (MIC ≤ 64 μg/mL for at least one BRD strain)”. Still for that read-out and setting: for `CCCNC[C@]1(O)[C@H](C)O[C@@H](O[C@H]2[C@H](C)[C@@H](O[C@@H]3O[C@H](C)C[C@H](NC)[C@H]3Oc3cccc(Cl)c3)[C@](C)(O)C[C@@H](C)CN[C@H](C)[C@@H](O)[C@](C)(O)[C@@H](CC)OC(=O)[C@@H]2C)C[C@@]1(C)OC` [Example E-21] the value was “E-21* (MIC ≤ 64 μg/mL for at least one BRD strain)”. Same read-out and setting: for `CCCNC[C@]1(O)[C@H](C)O[C@@H](O[C@H]2[C@H](C)[C@@H](O[C@@H]3O[C@H](C)C[C@H](NC)[C@H]3Oc3ccc(F)c(C)c3)[C@](C)(O)C[C@@H](C)CN[C@H](C)[C@@H](O)[C@](C)(O)[C@@H](CC)OC(=O)[C@@H]2C)C[C@@]1(C)OC` [Example E-22] the value was “E-22* (MIC ≤ 64 μg/mL for at least one BRD strain)”; for `CCCNC[C@]1(O)[C@H](C)O[C@@H](O[C@H]2[C@H](C)[C@@H](O[C@@H]3O[C@H](C)C[C@H](NC)[C@H]3Oc3ccc(F)cc3C)[C@](C)(O)C[C@@H](C)CN[C@H](C)[C@@H](O)[C@](C)(O)[C@@H](CC)OC(=O)[C@@H]2C)C[C@@]1(C)OC` [Example E-23], “E-23* (MIC ≤ 64 μg/mL for at least one BRD strain)”; for `CCCNC[C@]1(O)[C@H](C)O[C@@H](O[C@H]2[C@H](C)[C@@H](O[C@@H]3O[C@H](C)C[C@H](N(C)C)[C@H]3Oc3ccc(OC)c(OC(C)C)c3)[C@](C)(O)C[C@@H](C)CN[C@H](C)[C@@H](O)[C@](C)(O)[C@@H](CC)OC(=O)[C@@H]2C)C[C@@]1(C)OC` [Example E-29], “E-29* (MIC ≤ 64 μg/mL for at least one BRD strain)”. Regarding `CCCNC[C@]1(O)[C@H](C)O[C@@H](O[C@H]2[C@H](C)[C@@H](O[C@@H]3O[C@H](C)C[C@H](NC)[C@H]3Oc3ccncc3)[C@](C)(O)C[C@@H](C)CN[C@H](C)[C@@H](O)[C@](C)(O)[C@@H](CC)OC(=O)[C@@H]2C)C[C@@]1(C)OC` [Example E-32], the “MIC flag at the example number (Table E)” value is reported as “E-32* (MIC ≤ 64 μg/mL for at least one BRD strain)”. As to `CCCNC[C@]1(O)[C@H](C)O[C@@H](O[C@H]2[C@H](C)[C@@H](O[C@@H]3O[C@H](C)C[C@H](NC)[C@H]3Oc3ncccn3)[C@](C)(O)C[C@@H](C)CN[C@H](C)[C@@H](O)[C@](C)(O)[C@@H](CC)OC(=O)[C@@H]2C)C[C@@]1(C)OC` [Example E-33], the “MIC flag at the example number (Table E)” value is “E-33* (MIC ≤ 64 μg/mL for at least one BRD strain)”.

In the case of `CCCNC[C@]1(O)[C@H](C)O[C@@H](O[C@H]2[C@H](C)[C@@H](O[C@@H]3O[C@H](C)C[C@H](NC)[C@H]3Oc3ccc([N+](=O)[O-])cc3)[C@](C)(O)C[C@@H](C)CN[C@H](C)[C@@H](O)[C@](C)(O)[C@@H](CC)OC(=O)[C@@H]2C)C[C@@]1(C)OC` [Example E-35], the “MIC flag at the example number (Table E)” value is on record as “E-35* (MIC ≤ 64 μg/mL for at least one BRD strain)”. Same read-out and setting: the entry for `CCCNC[C@]1(O)[C@H](C)O[C@@H](O[C@H]2[C@H](C)[C@@H](O[C@@H]3O[C@H](C)C[C@H](NC)[C@H]3Oc3cccnc3C)[C@](C)(O)C[C@@H](C)CN[C@H](C)[C@@H](O)[C@](C)(O)[C@@H](CC)OC(=O)[C@@H]2C)C[C@@]1(C)OC` [Example E-44] is “E-44* (MIC ≤ 64 μg/mL for at least one BRD strain)”; for `CCCNC[C@]1(O)[C@H](C)O[C@@H](O[C@H]2[C@H](C)[C@@H](O[C@@H]3O[C@H](C)C[C@H](NC)[C@H]3Oc3cc(C)ccc3F)[C@](C)(O)C[C@@H](C)CN[C@H](C)[C@@H](O)[C@](C)(O)[C@@H](CC)OC(=O)[C@@H]2C)C[C@@]1(C)OC` [Example E-53] it is “E-53* (MIC ≤ 64 μg/mL for at least one BRD strain)”; for `CCCNC[C@]1(O)[C@H](C)O[C@@H](O[C@H]2[C@H](C)[C@@H](O[C@@H]3O[C@H](C)C[C@H](NC)[C@H]3Oc3cccc(OC(F)(F)F)c3)[C@](C)(O)C[C@@H](C)CN[C@H](C)[C@@H](O)[C@](C)(O)[C@@H](CC)OC(=O)[C@@H]2C)C[C@@]1(C)OC` [Example E-54] it is “E-54* (MIC ≤ 64 μg/mL for at least one BRD strain)”. As for `CCCNC[C@]1(O)[C@H](C)O[C@@H](O[C@H]2[C@H](C)[C@@H](O[C@@H]3O[C@H](C)C[C@H](NC)[C@H]3Oc3ccc(F)c(F)c3F)[C@](C)(O)C[C@@H](C)CN[C@H](C)[C@@H](O)[C@](C)(O)[C@@H](CC)OC(=O)[C@@H]2C)C[C@@]1(C)OC` [Example E-55], the “MIC flag at the example number (Table E)” value was “E-55* (MIC ≤ 64 μg/mL for at least one BRD strain)”. As to `CCCNC[C@]1(O)[C@H](C)O[C@@H](O[C@H]2[C@H](C)[C@@H](O[C@@H]3O[C@H](C)C[C@H](NC)[C@H]3Oc3ccc(F)cc3F)[C@](C)(O)C[C@@H](C)CN[C@H](C)[C@@H](O)[C@](C)(O)[C@@H](CC)OC(=O)[C@@H]2C)C[C@@]1(C)OC` [Example E-58], the “MIC flag at the example number (Table E)” value was “E-58* (MIC ≤ 64 μg/mL for at least one BRD strain)”. Take `CCCNC[C@]1(O)[C@H](C)O[C@@H](O[C@H]2[C@H](C)[C@@H](O[C@@H]3O[C@H](C)C[C@H](NC)[C@H]3Oc3cccnc3OCC)[C@](C)(O)C[C@@H](C)CN[C@H](C)[C@@H](O)[C@](C)(O)[C@@H](CC)OC(=O)[C@@H]2C)C[C@@]1(C)OC` [Example E-59]: the “MIC flag at the example number (Table E)” value is given as “E-59* (MIC ≤ 64 μg/mL for at least one BRD strain)”.

With `CCCNC[C@]1(O)[C@H](C)O[C@@H](O[C@H]2[C@H](C)[C@@H](O[C@@H]3O[C@H](C)C[C@H](NC)[C@H]3Oc3cccc4cc[nH]c34)[C@](C)(O)C[C@@H](C)CN[C@H](C)[C@@H](O)[C@](C)(O)[C@@H](CC)OC(=O)[C@@H]2C)C[C@@]1(C)OC` [Example E-65], the “MIC flag at the example number (Table E)” value is recorded as “E-65* (MIC ≤ 64 μg/mL for at least one BRD strain)”. Still for that read-out and setting: the entry for `CCCNC[C@]1(O)[C@H](C)O[C@@H](O[C@H]2[C@H](C)[C@@H](O[C@@H]3O[C@H](C)C[C@H](NC)[C@H]3Oc3ccccc3S(C)(=O)=O)[C@](C)(O)C[C@@H](C)CN[C@H](C)[C@@H](O)[C@](C)(O)[C@@H](CC)OC(=O)[C@@H]2C)C[C@@]1(C)OC` [Example E-66] is “E-66* (MIC ≤ 64 μg/mL for at least one BRD strain)”; for `CCCNC[C@]1(O)[C@H](C)O[C@@H](O[C@H]2[C@H](C)[C@@H](O[C@@H]3O[C@H](C)C[C@H](N(C)C)[C@H]3Oc3cncc(C(F)(F)F)c3)[C@](C)(O)C[C@@H](C)CN[C@H](C)[C@@H](O)[C@](C)(O)[C@@H](CC)OC(=O)[C@@H]2C)C[C@@]1(C)OC` [Example E-70] it is “E-70* (MIC ≤ 64 μg/mL for at least one BRD strain)”.
